The results in this text go back to patent US20090062536A1, “USE OF SULFONANILIDE COMPOUNDS AS HERBICIDE” (Bayer CropScience AG, priority 2007, published 2009).

Data set [1] relates to transplanted rice. Kind of data set: Herbicidal damage on transplanted paddy rice, paddy field pot test. Type of data set: in vivo, Oryza sativa L. cultivar: Nihonbare. The following applies: 125 g ai/ha applied onto water surface 5 days after transplanting; rated 3 weeks after treatment; 100% complete withering, 0% no damage. An excerpt:
(§1) Test of herbicidal effect to weeds and damage on paddy rice in a paddy field: In a greenhouse, each three paddy rice seedlings (Oryza sativa L. cultivar: Nihonbare) were transplanted in each pot filled with paddy field soil. Each twenty forced sprouts of paddy rice (Oryza sativa L. cultivar: Nihonbare) were also inoculated in each pot. Then, any of seeds or tubers of Cyperus difformis L., Echinochloa crus-galli, Scirpus juncoides, SU-resistant Scirpus juncoides, annual broad leaf weeds (including Lindernia procumbens Philcox, Rotala indica Koehne, and Elatine triandra Schk), SU-resistant annual broad leaf weeds, Sagittaria pygmaea Miq, Cyperus serotinus Rottboel was inoculated in the pot and covered with water in about 2 to 3 cm depth. Five days after transplanting paddy rice, prescribed diluted solutions of formulations of the respective active compounds were applied onto the water surface. Each of the formulations was prepared as an emulsion by mixing 1 part by weight of active compound with 5 parts by weight of carrier and 1 part by weight of emulsifier (benzyloxy polyglycol ether). After the treatment, water depth of 3 cm was kept. A herbicidal effect and a herbicidal damage on paddy rice were investigated 3 weeks after the treatment. The herbicidal effect and the herbicidal damage on paddy rice were rated as 100% in the case of complete withering and 0% in the case of no herbicidal effect or no herbicidal damage.

Data set [2] has as its system Cyperus serotinus. Nature of the data set: Herbicidal effect to weeds in a paddy field, pot test. In kind it is in vivo, Cyperus serotinus Rottboel. The following applies: 125 g ai/ha applied onto water surface; rated 3 weeks after treatment; 100% complete withering, 0% no effect.
Text: as §1

The test system of data set [3] is SU-resistant annual broad leaf weeds. The data set is described as above. The following applies: 125 g ai/ha applied onto water surface; rated 3 weeks after treatment; 100% complete withering, 0% no effect. Type of data set: in vivo.
Text: as §1

The test system of data set [4] is annual broad leaf weeds. Described as above. In kind it is in vivo. The following applies: 125 g ai/ha applied onto water surface; rated 3 weeks after treatment; 100% complete withering, 0% no effect.
Text: as §1

The test system of data set [5] is SU-resistant Scirpus juncoides. The description is as above. Type of data set: in vivo. The following applies: 125 g ai/ha applied onto water surface; rated 3 weeks after treatment; 100% complete withering, 0% no effect.
Text: as §1

The subject of data set [6] is Echinochloa crus-galli. Described as above. In kind it is in vivo. The settings on record: 125 g ai/ha applied onto water surface; rated 3 weeks after treatment; 100% complete withering, 0% no effect.
Text: as §1

Data set [7] concerns Scirpus juncoides. The description is as above. In kind it is in vivo. The following applies: 125 g ai/ha applied onto water surface; rated 3 weeks after treatment; 100% complete withering, 0% no effect.
Text: as §1

The test system of data set [8] is directley seeded rice. Kind of data set: Herbicidal damage on directly seeded paddy rice, paddy field pot test. Type of data set: in vivo, Oryza sativa L. cultivar: Nihonbare. The settings on record: 125 g ai/ha applied onto water surface; rated 3 weeks after treatment; 100% complete withering, 0% no damage.
Text: as §1

For data set [9], the system named is Sagittaria pygmaea. Nature of the data set: Herbicidal effect to weeds in a paddy field, pot test. Type of data set: in vivo, Sagittaria pygmaea Miq. The following applies: 125 g ai/ha applied onto water surface; rated 3 weeks after treatment; 100% complete withering, 0% no effect.
Text: as §1

Regarding `COc1cc(OC)nc(C(O)c2cccc(Br)c2NS(=O)(=O)CC(F)(F)F)n1` (centres unmarked) [Compound 1, 2-bromo-6-[(4,6-dimethoxypyrimidin-2-yl)(hydroxy)methyl]-N-2,2,2-trifluoroethanesulfonanilide], the “herbicidal damage on transplanted rice” value in [1] is on record as 0%. For the same molecule, the “herbicidal effect Cyperus serotinus” value in [2] is reported as 100%. Besides, the “herbicidal effect SU-resistant annual broad leaf weeds” value in data set [3] was 100%. For the same molecule, the “herbicidal effect annual broad leaf weeds” value in [4] stood at 100%. Moreover, the “herbicidal effect SU-resistant Scirpus juncoides” value in data set [5] is 100%. Moreover, in data set [6], the “herbicidal effect Echinochloa crus-galli” value is reported as 100%. Also, in [7], the “herbicidal effect Scirpus juncoides” value is 100%. For the same molecule, the “herbicidal damage on directley seeded rice” value in data set [8] amounted to 10%. In [9], the “herbicidal effect Sagittaria pygmaea” value is 100%.

With `COc1cc(OC)nc(C(SC)c2cccc(I)c2NS(=O)(=O)CC(F)(F)F)n1` (centres unmarked) [Compound 8, 2-iodo-6-[(4,6-dimethoxypyrimidin-2-yl)(methylthio)methyl]-N-2,2,2-trifluoroethanesulfonanilide], the “herbicidal damage on transplanted rice” value in data set [1] was 0%. The “herbicidal effect Cyperus serotinus” value in [2] is 100%. For the same molecule, the “herbicidal effect SU-resistant annual broad leaf weeds” value in [3] stood at 100%. The “herbicidal effect annual broad leaf weeds” value in data set [4] was determined as 100%. Besides, in data set [5], the “herbicidal effect SU-resistant Scirpus juncoides” value turned out to be 90%. Moreover, the “herbicidal effect Echinochloa crus-galli” value in data set [6] is 100%. In addition, in [7], the “herbicidal effect Scirpus juncoides” value was 100%. Also, the “herbicidal damage on directley seeded rice” value in data set [8] was 10%. In addition, the “herbicidal effect Sagittaria pygmaea” value in data set [9] is listed as 100%.

`COc1cc(OC)nc(C(SC)c2cccc(Br)c2NS(=O)(=O)CC(F)(F)F)n1` (centres unmarked) [Compound 4, 2-bromo-6-[(4,6-dimethoxypyrimidin-2-yl)methylthiomethyl]-N-2,2,2-trifluoroethanesulfonanilide]: the “herbicidal damage on transplanted rice” value in data set [1] was 0%. The “herbicidal effect Cyperus serotinus” value in data set [2] is 100%. In addition, the “herbicidal effect SU-resistant annual broad leaf weeds” value in [3] was determined as 100%. The “herbicidal effect annual broad leaf weeds” value in data set [4] came to 100%. For the same molecule, in data set [5], the “herbicidal effect SU-resistant Scirpus juncoides” value turned out to be 90%. For the same molecule, in data set [6], the “herbicidal effect Echinochloa crus-galli” value was determined as 100%. The “herbicidal effect Scirpus juncoides” value in data set [7] was 100%. Further, the “herbicidal damage on directley seeded rice” value in data set [8] is 10%. Moreover, the “herbicidal effect Sagittaria pygmaea” value in data set [9] turned out to be 100%.

Regarding `COc1cc(OC)nc(C(=O)c2cccc(Br)c2NS(=O)(=O)CC(F)(F)F)n1` [Compound 2, 2-bromo-6-[(4,6-dimethoxypyrimidin-2-yl)carbonyl]-N-2,2,2-trifluoroethanesulfonanilide], in data set [1], the “herbicidal damage on transplanted rice” value came to 10%. Moreover, the “herbicidal effect Cyperus serotinus” value in data set [2] was found to be 100%. Also, the “herbicidal effect SU-resistant annual broad leaf weeds” value in data set [3] is 100%. For the same molecule, the “herbicidal effect annual broad leaf weeds” value in [4] amounted to 100%. Moreover, the “herbicidal effect SU-resistant Scirpus juncoides” value in data set [5] worked out at 100%. In data set [6], the “herbicidal effect Echinochloa crus-galli” value is 100%. Besides, in data set [7], the “herbicidal effect Scirpus juncoides” value is 100%. The “herbicidal damage on directley seeded rice” value in data set [8] amounted to 20%. Also, the “herbicidal effect Sagittaria pygmaea” value in data set [9] was found to be 100%.

Take `COc1cc(Cl)nc(C(=O)c2cccc(Cl)c2N(C)S(=O)(=O)C(F)F)n1` [Compound 51, N-{2-chloro-6-[(4-chloro-6-methoxypyrimidin-2-yl)carbonyl]phenyl}-N-methyl-1,1-difluoromethanesulfonamide]: the “herbicidal damage on transplanted rice” value in data set [1] was 10%. Besides, the “herbicidal effect Cyperus serotinus” value in data set [2] is given as 100%. Further, the “herbicidal effect annual broad leaf weeds” value in [4] was found to be 90%. The “herbicidal effect SU-resistant Scirpus juncoides” value in data set [5] came to 90%. Besides, the “herbicidal effect Echinochloa crus-galli” value in [6] is 100%. In addition, the “herbicidal effect Scirpus juncoides” value in [7] is listed as 100%. Besides, the “herbicidal damage on directley seeded rice” value in data set [8] was found to be 30%. Moreover, the “herbicidal effect Sagittaria pygmaea” value in [9] turned out to be 100%.

Regarding `COc1cc(OC)nc(C(O)c2cccc(I)c2NS(=O)(=O)CC(F)(F)F)n1` (centres unmarked) [Compound 5, 2-iodo-6-[(4,6-dimethoxypyrimidin-2-yl)(hydroxy)methyl]-N-2,2,2-trifluoroethanesulfonanilide], the “herbicidal damage on transplanted rice” value in data set [1] was 20%. For the same molecule, the “herbicidal effect Cyperus serotinus” value in [2] is listed as 100%. Also, the “herbicidal effect SU-resistant annual broad leaf weeds” value in data set [3] is recorded as 100%. Also, the “herbicidal effect annual broad leaf weeds” value in data set [4] is recorded as 100%. Also, in [5], the “herbicidal effect SU-resistant Scirpus juncoides” value turned out to be 90%. Further, the “herbicidal effect Echinochloa crus-galli” value in data set [6] is 100%. For the same molecule, in data set [7], the “herbicidal effect Scirpus juncoides” value is on record as 100%. Moreover, the “herbicidal damage on directley seeded rice” value in data set [8] was found to be 30%. The “herbicidal effect Sagittaria pygmaea” value in data set [9] was 100%.

With `COc1nc(OC)nc(C(=O)c2cccc(Br)c2N(C)S(=O)(=O)C(F)F)n1` [Compound 10, N-{2-bromo-6-[(4,6-dimethoxy-1,3,5-triazin-2-yl)carbonyl]phenyl}-N-methyl-1,1-difluoromethanesulfonamide], in [1], the “herbicidal damage on transplanted rice” value is 10%. Besides, the “herbicidal effect Cyperus serotinus” value in [2] was 100%. Besides, the “herbicidal effect SU-resistant annual broad leaf weeds” value in data set [3] stood at 100%. The “herbicidal effect annual broad leaf weeds” value in data set [4] is on record as 90%. In [5], the “herbicidal effect SU-resistant Scirpus juncoides” value is reported as 90%. Moreover, the “herbicidal effect Echinochloa crus-galli” value in data set [6] came to 100%. The “herbicidal effect Scirpus juncoides” value in data set [7] was found to be 100%. For the same molecule, the “herbicidal damage on directley seeded rice” value in data set [8] worked out at 30%. The “herbicidal effect Sagittaria pygmaea” value in [9] worked out at 100%.
